Data reported in US20100298447A1, “COMPOSITE PRODUCT OF LOW-SOLUBILITY DRUG AND SURFACTANT, AND PROCESS FOR PRODUCTION THEREOF” (priority 2007, published 2010).

Experiment: Solubility of aciclovir in water at room temperature
Type: physicochemical
Settings: room temperature (25° C.)
Description: Thus, an S/O solution could not be obtained. Thus, an aciclovir dispersion was prepared in the form of an S/O solution.

SMILES: Nc1nc2c(ncn2COCCO)c(=O)[nH]1 [aciclovir]
- solubility in water: very poor
